The subject of series [1] is Rattus norvegicus. The note with it: oral.
The test system of series [2] is Rattus norvegicus. The note with it: repeat dose other; oral.
Series [3] has as its system Rattus norvegicus. The note with it: for LOAEL: subchronic, Sprague-Dawley.
For series [4], the system named is Rattus norvegicus. Conditions: developmental, oral, gavage, generation: F1.
Series [5] has as its system Mus musculus. The note with it: reproduction developmental, oral, generation: P0.
Series [6] concerns Mus musculus. The note with it: M/F; for NOAEL: developmental.
The test system of series [7] is Rattus norvegicus. The note with it: chronic; duration: 2 years; oral; diet; Liver: Increased weight.
Series [8] deals with Mus musculus.
The test system of series [9] is Rattus norvegicus. The note with it: oral, M/F.
In series [10] the test system is Rattus norvegicus. Conditions: oral; for LOAEL / NOAEL: gavage, M/F, Crl:CD(SD), During lactation periods f1 & f2: increased pup mortality, decreased pup viability & bodyweight, decreased lactation index, increased ….
Setting [11] is: subchronic, liver and kidney pathology.
Setting [12] is: subchronic, oral, M/F, hepatotoxicity.
Where [13] appears, read: developmental, increased retinal folds in weanlings, reduced viability and lactation indices, reduced pup body weight, increased dead pups at birth.
Where [14] appears, read: developmental, inhalation, M/F, delayed fetal ossification.

The record followed here is EPA's ToxValDB 9.5.

A word on the LOAEL: it is the lowest dose or exposure tested at which an adverse effect was seen. As for `O=C1[O][Sb-]23[O]C(=O)C([O]2)C2[O][Sb-]4([O]C(=O)C([O]4)C1[O]3)[O]C2=O.[K+].[K+]`, the LOAEL in the series on Rattus norvegicus [1] (chronic, duration: 2 years, drinking water, M/F, Long-Evans, Whole Body Effects) was determined as 0.35 mg/kg-day.
One may read the NOAEL as the highest tested level that showed no adverse finding. Regarding `Clc1cc2c(oc3cc(Cl)c(Cl)c(Cl)c32)c(Cl)c1Cl` [1,2,3,6,7,8-Hexachlorodibenzofuran], in the series on Rattus norvegicus [2], the LOAEL came to 0.0016 mg/kg-day and the NOAEL amounted to 0.00016 mg/kg-day.
In the case of `CC(O)CO` (stereo not given) [1,2-Propylene glycol], the LOAEL was 5200 mg/kg-day in the series on Rattus norvegicus [1] (subchronic, duration: 5 weeks, drinking water, M, Wistar, Hematologic) and 159 mg/m3 in the series with Rattus norvegicus [3] (duration: 13 weeks, inhalation, nose only, M/F, respiratory).
Take `Brc1c(Br)c(Br)c(Oc2c(Br)c(Br)c(Br)c(Br)c2Br)c(Br)c1Br` [2,2',3,3',4,4',5,5',6,6'-Decabromodiphenyl ether]: the LOEL amounted to 1000 mg/kg-day in the series on Rattus norvegicus [4] (M/F, Crl:CD(SD), F1: Water T maze (learning error)); 30 mg/kg-day in the series with Rattus norvegicus [4] (M, Sprague-Dawley, F1: Morris water maze (latency, last trial) + F1: Morris water maze (latency, significant trial)); 6 mg/kg-day in the series on Mus musculus [5] (M/F, C57BL/6, P0: Operant test (fixed interval schedule, index of curvature, last block) + P0: Operant test (fixed interval schedule, index of curvature, …); 20 mg/kg-day in the series with Mus musculus [5] (M/F, C57BL/6, P0: Operant test (fixed interval schedule, overall response rate, first block) + P0: Operant test (fixed interval schedule, overall response…); 10 mg/kg-day with Mus musculus [5] (M, Apoe3, P0: Morris water maze (swim distance in target quadrant)); 20 mg/kg-day with Mus musculus [5] (M, Swiss Albino, P0: Morris water maze (latency, last trial) + P0: Morris water maze (latency, significant trial) + P0: Morris water maze (time spent in …). Besides, the LOAEL in the series with Rattus norvegicus [3] (duration: 8 weeks, oral, gavage, M, endocrine) turned out to be 0.05 mg/kg-day; with Mus musculus [8] (developmental, oral, gavage, M, neurobehavioral effects), 20.1 mg/kg-day. The NOAEL with Mus musculus [6] (duration: 1 days, oral, gavage, NMRI) amounted to 1.34 mg/kg-day; in the series on Mus musculus [8] (developmental, oral, gavage, neurobehavioral effects), 2.22 mg/kg-day. The compound also yielded an NOEL in the series on Rattus norvegicus [7] of 1 mg/kg-day.
The compound `Oc1cc(Cl)c(Cl)cc1Cl` [2,4,5-Trichlorophenol] came in with an NOAEL in the series on Rattus norvegicus [1] (chronic, duration: 98 days, diet, M/F, Wistar, Hepatic, Urinary) of 100 mg/kg-day. The same compound showed an NOAEL in the series on Rattus norvegicus [3] (chronic, duration: 98 days, oral, diet, M/F, Wistar, hepatic, renal) of 100 mg/kg-day. In addition, in the series on Rattus norvegicus [9] (setting [11]), the LOAEL stood at 300 mg/kg-day and the NOEL was found to be 100 mg/kg-day.
In the series on Rattus norvegicus [1] (chronic, duration: 18 weeks, diet, M/F, FDRL, Whole Body Effects), `OCCCl` [2-Chloroethanol] gave an NOAEL of 45 mg/kg-day.
In turn, `Cc1ccccc1N` [2-Methylaniline] displayed an LOAEL in the series on Rattus norvegicus [1] (subchronic, duration: 13 weeks, diet, M, Fischer 344) of 301 mg/kg-day.
Take `OCC(O)CCl` (stereo not given) [3-Chloro-1,2-propanediol]: the LOEL with Rattus norvegicus [10] (chronic, drinking water, Fischer 344, Kidney proximule tubule hyperplasia) amounted to 1.1 mg/kg-day.
As to `O=C(c1ccc(Cl)cc1)c1ccc(Cl)cc1` [4,4'-Dichlorobenzophenone], the NOAEL in the series with Rattus norvegicus [1] (subchronic, duration: 90 days, diet, M, Wistar) came out at 86 mg/kg-day.
As for `c1cc2c3c(cccc3c1)CC2` [Acenaphthene], the LOAEL in the series on Mus musculus [6] (subchronic, duration: 90 days, oral, gavage, CD1, hepatic) came out at 175 mg/kg-day; in the series on Mus musculus [8] (setting [12]) it was 350 mg/kg-day. In addition, the NOAEL with Mus musculus [8] (setting [12]) came out at 175 mg/kg-day.
As for `CC[C@H](C)[C@H]1O[C@]2(C=C[C@@H]1C)C[C@@H]1C[C@@H](C/C=C(\C)[C@@H](O[C@H]3C[C@H](OC)[C@@H](O[C@H]4C[C@H](OC)[C@@H](O)[C@H](C)O4)[C@H](C)O3)[C@@H](C)/C=C/C=C3\CO[C@@H]4[C@H](O)C(C)=C[C@@H](C(=O)O1)[C@]34O)O2` [Avermectin B1a], in the series on Rattus norvegicus [10] (developmental), the LOAEL was 0.4 mg/kg-day and the NOAEL worked out at 0.12 mg/kg-day. In the series with Rattus norvegicus [10] (two-generation), the LOAEL stood at 0.4 mg/kg-day and the NOAEL amounted to 0.12 mg/kg-day. Besides, in the series with Rattus norvegicus [9] (setting [13]), the LEL was 0.4 mg/kg-day and the NOEL was determined as 0.12 mg/kg-day.
`[Ba+2].[Cl-].[Cl-]` [Barium chloride] gave an NOAEL in the series with Rattus norvegicus [2] of 5.1 mg/kg-day.
For the compound `ClCCOCOCCCl` [Bis(2-chloroethoxy)methane], in the series on Rattus norvegicus [1] (subchronic, duration: 90 days, gavage, M/F, Sprague-Dawley, hepatic), the NOAEL was 10 mg/kg-day.
As to `Nc1cc(Cl)cc(C(=O)O)c1Cl` [Chloramben], in the series on Mus musculus [8] (chronic, duration: 18 months, oral, diet, M/F, CD1, hepatocyte degeneration), the LEL is 15 mg/kg-day.
With `CCCl` [Chloroethane], the NOAEL with Rattus norvegicus [1] (short-term, duration: 14 days, drinking water, F, Fischer 344, Whole Body Effects) was 361 mg/kg-day; with Mus musculus [6] (duration: 9 days, inhalation, CF1), 3970 mg/m3; in the series on Mus musculus [8] (setting [14]), 4000 mg/m3. This compound yielded an LOAEL in the series on Mus musculus [8] (setting [14]) of 13000 mg/m3.
